According to patent US20260234147A1 (priority 2023, published 2026):
Read-outs that look alike come from different tables or passages of the source.

Tests used:
hMOR [1] = target: T1, hMOR (Homo sapiens, UniProt P35372); assay: cell-based; parameters: expressed in transfected cells
hDOR = hDOR (Homo sapiens, UniProt P41143); assay: Radioligand binding assay (Eurofins Cerep), [3H]DADLE displacement; details: read-out: DOR Ki ± SEM
hMOR [2] = target: T1, hMOR; assay: Radioligand binding assay (Eurofins Cerep), [3H]DAMGO displacement
hKOR = hKOR (Homo sapiens, UniProt P41145); assay: Radioligand binding assay (Eurofins Cerep), [3H]U69,593 displacement; details: read-out: KOR Ki ± SEM
Chain of hKOR (P41145 whole entry): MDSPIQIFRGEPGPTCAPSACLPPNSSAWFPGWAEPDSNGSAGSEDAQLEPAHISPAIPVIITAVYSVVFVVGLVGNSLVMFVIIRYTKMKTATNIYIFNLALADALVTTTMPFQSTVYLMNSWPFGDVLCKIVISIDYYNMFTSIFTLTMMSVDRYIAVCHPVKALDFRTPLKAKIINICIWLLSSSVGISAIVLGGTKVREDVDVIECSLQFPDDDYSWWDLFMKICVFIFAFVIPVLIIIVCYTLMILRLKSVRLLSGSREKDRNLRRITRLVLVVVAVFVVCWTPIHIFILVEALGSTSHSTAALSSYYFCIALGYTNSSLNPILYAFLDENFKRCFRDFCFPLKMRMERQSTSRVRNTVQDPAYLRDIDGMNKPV

[3] = Metabolic stability in rat liver microsomes; format: in vitro ADME; details: for Whole liver clearance, CL int, H: in vitro intrinsic clearance in RLM scaled to whole organ (rat); for RLM stability: rat liver microsomes 1 mg/ml, substrate 1 μM, NADPH, 37° C.
Procedure: In vitro metabolic stability of each compound was determined using rat liver microsomes in triplicate. Verapamil was used as a positive control to check the activity of the microsomes. The incubation mixtures consisted of rat liver microsomes (1 mg microsomal protein/ml), substrate (1 μM), and reduced NADPH (1 mM) in a total volume of 0.4 ml potassium phosphate buffer (50 mM, pH 7.4). Reactions were initiated with the addition of NADPH and kept in an incubator shaker at 37° C. Aliquots of 25 μl were withdrawn at 0, 5, 10, 15, 30, and 60 min and mixed with 125 μl of acetonitrile with formic acid (0.1% v/v) containing phenacetin (50 ng/ml; internal standard) for the termination of the reaction. The samples were then vortex mixed and filtered through a […] 96-well membrane filtration plate under centrifugation at speed of 2000×g for 5 min at 4° C. The filtrates were subjected to UPLC-mass spectrometry (MS/MS) analysis.
The intrinsic clearance of the compounds was calculated using a half-life employing the ‘substrate depletion’ approach. The apparent half-life was calculated from the pseudo-first-order rate constants obtained by linear regression of log (concentration) and time plots. The in vitro intrinsic clearance of IFN was estimated using the formula: […]
Where k is the slope of the line obtained by plotting the natural logarithmic of the percentage of parent remaining versus time and V is the volume of incubation.
The in vitro intrinsic clearance was scaled to whole-organ (hepatic) in vivo intrinsic CL (CLint,H) using the scaling factors available in the literature using equation (Mahmood I. Application of allometric principles for the prediction of pharmacokinetics in human and veterinary drug development. Advanced drug delivery reviews, 2007, 59(11), 1177-1192)
MPPGL represents the microsomal protein per gram of Sprague Dawley rat liver (45 mg/g) and liver weight per kg body weight was 40 g/kg.

α2A adrenergic receptor = target: T2, α2A adrenergic receptor (Homo sapiens, UniProt P08913); assay: Radioligand binding assay (Eurofins Cerep), [3H]RX 821002 displacement; details: read-out: Alpha2A Ki ± SEM
T2 construct: Eurofins Cerep (contract screening)
T2 sequence (P08913 1-465): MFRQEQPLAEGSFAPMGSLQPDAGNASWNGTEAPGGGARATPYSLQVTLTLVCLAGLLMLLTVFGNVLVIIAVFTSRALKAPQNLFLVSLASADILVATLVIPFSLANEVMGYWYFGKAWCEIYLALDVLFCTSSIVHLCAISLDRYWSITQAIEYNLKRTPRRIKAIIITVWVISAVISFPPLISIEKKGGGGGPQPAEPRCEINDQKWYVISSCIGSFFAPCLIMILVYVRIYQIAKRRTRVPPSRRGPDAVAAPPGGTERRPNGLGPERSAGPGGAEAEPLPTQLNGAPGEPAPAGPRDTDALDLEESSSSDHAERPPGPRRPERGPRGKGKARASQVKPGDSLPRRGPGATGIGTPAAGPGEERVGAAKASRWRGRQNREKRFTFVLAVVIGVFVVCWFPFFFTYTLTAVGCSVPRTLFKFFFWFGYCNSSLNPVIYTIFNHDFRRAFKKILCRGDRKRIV

[4] = Table A1, data summary #1, read-out: MOR Ki ± SEM
[5] = Table A4, data summary #2, read-out: MOR Ki ± SEM

T1 sequence (P35372 whole entry): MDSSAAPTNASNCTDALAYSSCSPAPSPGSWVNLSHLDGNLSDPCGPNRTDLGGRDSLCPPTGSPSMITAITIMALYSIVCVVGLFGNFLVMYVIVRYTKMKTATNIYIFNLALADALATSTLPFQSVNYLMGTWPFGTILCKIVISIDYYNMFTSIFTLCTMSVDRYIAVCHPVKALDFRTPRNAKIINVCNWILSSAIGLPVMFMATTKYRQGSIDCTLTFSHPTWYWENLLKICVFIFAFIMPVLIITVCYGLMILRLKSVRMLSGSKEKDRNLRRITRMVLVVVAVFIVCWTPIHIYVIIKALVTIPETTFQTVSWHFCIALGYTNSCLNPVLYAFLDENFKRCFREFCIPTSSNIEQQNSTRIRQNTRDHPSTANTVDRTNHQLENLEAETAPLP
Chain of hDOR (P41143 whole entry): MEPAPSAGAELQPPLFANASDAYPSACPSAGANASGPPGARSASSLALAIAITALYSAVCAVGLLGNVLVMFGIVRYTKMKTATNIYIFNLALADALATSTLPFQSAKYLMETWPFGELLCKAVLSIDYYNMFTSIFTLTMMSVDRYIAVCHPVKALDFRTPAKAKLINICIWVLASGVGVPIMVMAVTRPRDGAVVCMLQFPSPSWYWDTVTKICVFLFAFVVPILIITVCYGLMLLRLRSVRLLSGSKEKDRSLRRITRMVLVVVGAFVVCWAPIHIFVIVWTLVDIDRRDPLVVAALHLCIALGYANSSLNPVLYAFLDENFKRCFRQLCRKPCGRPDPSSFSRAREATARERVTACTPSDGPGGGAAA

Row | SMILES | Emax (hMOR [1]; CHO, read-out: MOR Emax ± SEM (%)) | MOR Emax ± SEM (% DAMGO) (hMOR [1]; Table A1, data summary #1) | Ki (hDOR; Table A1, data summary #1) | Ki (hMOR [2]; [4]) | Ki (hKOR; Table A1, data summary #1) | Ki (hDOR; Table A4, data summary #2) | Whole liver clearance, CL int, H [3] | RLM stability [3] | Ki (hMOR [2]; [5]) | Ki (α2A adrenergic receptor; Table A1, data summary #1) | Ki (α2A adrenergic receptor; Table A4, data summary #2) | Ki (hKOR; Table A4, data summary #2) | Ki (hMOR [2]; read-out: Ki at hMOR)
1 | C[C@@H](NC(=O)[C@@H](N)Cc1ccc(O)cc1)C(=O)NCC(=O)N(C)[C@@H](Cc1ccccc1)C(=O)NCCO [DAMGO, reference compound] | 106 ± 2% |  |  |  |  |  |  |  |  |  |  |  | 
2 | CC[C@@H]1CN2CC[C@]3(Nc4cccc(OC)c4C3=O)[C@@H]2C[C@@H]1/C(=C\OC)C(=O)OC [Mitragynine pseudoindoxyl, reference compound] |  | 42.4 % DAMGO | 0.00293 µM | 0.0013 µM | 0.15 µM |  |  |  |  |  |  |  | 
3 | CC[C@@H]1CN2CCc3c([nH]c4cccc(OC)c34)[C@@H]2C[C@@H]1/C(=C\OC)C(=O)NC [SUSM-25, (E)-2-((2S,3S,12bS)-3-ethyl-8-methoxy-1,2,3,4,6,7,12,12b-octahydroindolo[2,3-a]quinolizin-2-yl)-3-methoxy-N-methylacrylamide] |  |  | > 10 µM | 4.02 ± 0.728 µM | > 10 µM | > 10 µM | 8.9 mL/min/kg | >60 min | 3.52 ± 0.763 µM | 7.04 ± 1.82 µM | 6.74 ± 1.91 µM | > 10 µM | 
4 | CCCNC(=O)/C(=C/OC)[C@H]1C[C@H]2c3[nH]c4cccc(OC)c4c3CCN2C[C@H]1CC [SUSM-27, (E)-2-((2S,3S,12bS)-3-ethyl-8-methoxy-1,2,3,4,6,7,12,12b-octahydroindolo[2,3-a]quinolizin-2-yl)-3-methoxy-N-propylacrylamide] |  |  | > 10 µM | 4.56 ± 0.692 µM | > 10 µM | > 10 µM | 20.8 mL/min/kg | >60 min | 4.56 ± 0.692 µM | 2.73 ± 1.26 µM | 6.45 ± 2.59 µM | > 10 µM | 
5 | CCNC(=O)/C(=C/OC)[C@H]1C[C@H]2c3[nH]c4cccc(OC)c4c3CCN2C[C@H]1CC [SUSM-32, (E)-N-ethyl-2-((2S,3S,12bS)-3-ethyl-8-methoxy-1,2,3,4,6,7,12,12b-octahydroindolo[2,3-a]quinolizin-2-yl)-3-methoxyacrylamide] |  |  | > 10 µM | 4.22 ± 0.752 µM | > 10 µM | > 10 µM | 11.4 mL/min/kg | >60 min | 4.22 ± 0.752 µM | 4.29 ± 1.12 µM | 3.87 ± 0.984 µM | > 10 µM | 
6 | CC[C@@H]1CN2CCc3c([nH]c4cccc(OC)c34)[C@@H]2C[C@@H]1/C(=C\OC)C(=O)NC1CCCC1 [SUSM-506, (E)-N-cyclopentyl-2-((2S,3S,12bS)-3-ethyl-8-methoxy-1,2,3,4,6,7,12,12b-octahydroindolo[2,3-a]quinolizin-2-yl)-3-methoxyacrylamide] |  |  | > 10 µM | 1.38 ± 0.176 µM | 5.85 ± 0.657 µM | > 10 µM | 36.4 mL/min/kg | 30 min | 1.38 ± 0.176 µM | 8.97 ± 0.572 µM | 5.75 ± 0.568 µM | 5.85 ± 0.657 µM | 
7 | CC[C@@H]1CN2CCc3c([nH]c4cccc(OC)c34)[C@@H]2C[C@@H]1/C(=C\OC)C(=O)N1CCCC1 [SUSM-507, (E)-2-((2S,3S,12bS)-3-ethyl-8-methoxy-1,2,3,4,6,7,12,12b-octahydroindolo[2,3-a]quinolizin-2-yl)-3-methoxy-1-(pyrrolidin-1-yl)prop-2-en-1-one] |  |  | > 10 µM | 0.655 ± 0.0766 µM | > 10 µM | 6.26 ± 3.17 µM | 833.8 mL/min/kg | <5 min | 0.655 ± 0.0766 µM | 9.85 ± 1.57 µM | 4.99 ± 1.02 µM | > 10 µM | 
8 | CC[C@@H]1CN2CCc3c([nH]c4cccc(OC)c34)[C@@H]2C[C@@H]1/C(=C\OC)C(=O)N(CC)CC [SUSM-509, (E)-N,N-diethyl-2-((2S,3S,12bS)-3-ethyl-8-methoxy-1,2,3,4,6,7,12,12b-octahydroindolo[2,3-a]quinolizin-2-yl)-3-methoxyacrylamide] |  |  | > 10 µM | 1.13 ± 0.0738 µM | > 10 µM | > 10 µM |  | <5 min | 1.13 ± 0.0738 µM | 5.2 ± 0.621 µM | 2.73 ± 0.488 µM | > 10 µM | 
9 | CC[C@@H]1CN2CCc3c([nH]c4cccc(OC)c34)[C@@H]2C[C@@H]1/C(=C\OC)C(=O)N1CCCCC1 [SUSM-518, (E)-2-((2S,3S,12bS)-3-ethyl-8-methoxy-1,2,3,4,6,7,12,12b-octahydroindolo[2,3-OMea]quinolizin-2-yl)-3-methoxy-1-(piperidin-1-yl)prop-2-en-1-one] |  |  | > 10 µM |  | 7.46 ± 1.42 µM | > 10 µM |  | <5 min | 0.244 ± 0.055 µM |  | 0.523 ± 0.155 µM | 7.46 ± 1.42 µM | 0.129 µM
10 | CC[C@@H]1CN2CCc3c([nH]c4cccc(OC)c34)[C@@H]2C[C@@H]1/C(=C\OC)C(=O)NC1CCCCC1 [SUSM-519, (E)-N-cyclohexyl-2-((2S,3S,12bS)-3-ethyl-8-methoxy-1,2,3,4,6,7,12,12b-octahydroindolo[2,3-a]quinolizin-2-yl)-3-methoxyacrylamide] |  |  | > 10 µM | 3.59 ± 0.663 µM | 2.79 ± 0.64 µM | > 10 µM | 38.4 mL/min/kg | 30 min | 2.18 ± 0.603 µM |  | 0.933 ± 0.242 µM | 2.79 ± 0.64 µM | 
11 | CC[C@@H]1CN2CCc3c([nH]c4cccc(OC)c34)[C@@H]2C[C@@H]1/C(=C\OC)C(=O)N(C)CC [SUSM-520, (E)-N-ethyl-2-((2S,3S,12bS)-3-ethyl-8-methoxy-1,2,3,4,6,7,12,12b-octahydroindolo[2,3-a]quinolizin-2-yl)-3-methoxy-N-methylacrylamide] |  |  | > 10 µM | 0.459 ± 0.0407 µM | 4.78 ± 1.14 µM | > 10 µM | 879.7 mL/min/kg | <5 min | 0.452 ± 0.033 µM |  | 0.938 ± 0.223 µM | 4.78 ± 1.14 µM | 
12 | CCCN(C)C(=O)/C(=C/OC)[C@H]1C[C@H]2c3[nH]c4cccc(OC)c4c3CCN2C[C@H]1CC [SUSM-521, (E)-2-((2S,3S,12bS)-3-ethyl-8-methoxy-1,2,3,4,6,7,12,12b-octahydroindolo[2,3-a]quinolizin-2-yl)-3-methoxy-N-methyl-N-propylacrylamide] |  |  | 5.89 ± 0.105 µM |  | 2.61 ± 0.588 µM | 4.03 ± 0.797 µM |  | <5 min | 0.222 ± 0.033 µM |  | 1.51 ± 0.676 µM | 2.61 ± 0.588 µM | 0.167 µM
